Data on 25 molecules can be found in ChEMBL document CHEMBL1933003, “Cytotoxic esterified diterpenoid alkaloid derivatives with increased selectivity against a drug-resistant cancer cell line” (Bioorg Med Chem Lett, 2012).

One test concerns A549. Description: Cytotoxicity against human A549 cells by sulforhodamine B assay. It is filed as functional, cell-based. In general terms: The SRB assay estimates cell density from bound dye.
Test [1] relates to KB. Description: Cytotoxicity against multi-drug resistant variant vincristine resistant human KB cells expressing P-glycoprotein by sulforhodamine B assay. It counts as functional, cell-based.
The test system of test [2] is KB. Description: Cytotoxicity against human KB cells by sulforhodamine B assay. It counts as functional, cell-based.
Another test concerns DU-145. Description: Cytotoxicity against human DU145 cells by sulforhodamine B assay. It is filed as functional, cell-based.
Test [3] concerns KB. Description: Selectivity ratio of EC50 for human KB cells to EC50 for multi-drug resistant variant vincristine resistant human KB cells expressing P-glycoprotein by sulforhodamine B assay. It is filed as functional.

Molecules are shown by their SMILES.

The EC50 is the concentration giving half of the maximal effect. Higher therefore signals lower potency in that assay. Turning to `CCN1C[C@]2(C)CC[C@H](OC)[C@@]34[C@@H]5C[C@H]6[C@H](OC)[C@@H]5[C@@]5(C[C@@H]6OC)OCO[C@@]5(C(=O)[C@H]23)[C@@H]14` [PACININE], the EC50 in the test with A549, in the test on KB [1], in the test on KB [2] and in the test with DU-145 was above 20 µM each time.

Take `CCN1C[C@]2(C)CC[C@H](OC)[C@@]34[C@@H]5C[C@H]6[C@H](OC)[C@@H]5[C@@]5(C[C@@H]6OC)OCO[C@@]5([C@@H](OC(=O)c5ccc(C(F)(F)F)c(F)c5)[C@H]23)[C@@H]14`: the “Ratio EC50” value with KB [3] came out at 1.24. The EC50 was 16.5 µM in the test on A549, 4.4 µM in the test on KB [1], 5.44 µM in the test with KB [2] and 11.3 µM in the test with DU-145.

`CCN1C[C@]2(C)CC[C@H](OC)[C@@]34[C@@H]5C[C@H]6[C@H](OC)[C@@H]5[C@@]5(C[C@@H]6OC)OCO[C@@]5([C@@H](OC(=O)c5ccc(Cl)cc5)[C@H]23)[C@@H]14`: in the test with KB [3], the “Ratio EC50” value amounted to 1.07. For the same molecule, the EC50 was 14.8 µM with A549, 8.27 µM in the test with KB [1], 8.85 µM with KB [2] and 7.4 µM in the test on DU-145.

As to `CCN1C[C@]2(C)CC[C@H](OC)[C@@]34C1[C@@]1(OCO[C@@]15C[C@H](OC)[C@H]1C[C@@H]3[C@@H]5[C@H]1OC)[C@@H](OC(=O)c1cc(OC)c(OC)c(OC)c1)[C@H]24` (single isomer, unassigned), the EC50 with A549, with KB [1], in the test on KB [2] and with DU-145 was above 20 µM in each case.

For `CCN1C[C@]2(C)CC[C@H](OC)[C@@]34C1[C@@]1(OCO[C@@]15C[C@H](OC)[C@H]1C[C@@H]3[C@@H]5[C@H]1OC)[C@@H](OC(=O)c1ccc(-c3ccccc3)cc1)[C@H]24` (single isomer, unassigned), the EC50 with A549 was above 20 µM; with KB [1] it was 17.4 µM; with KB [2], above 20 µM; in the test on DU-145 it was 17.1 µM.

For the molecule `CCN1C[C@]2(C)CC[C@H](OC)[C@@]34[C@@H]5C[C@H]6[C@H](OC)[C@@H]5[C@@]5(C[C@@H]6OC)OCO[C@@]5([C@@H](OC(=O)c5cccc(C(F)(F)F)c5)[C@H]23)[C@@H]14`, the “Ratio EC50” value in the test with KB [3] is 1.25. For the same molecule, the EC50 in the test with A549 was above 20 µM; with KB [1], 11.9 µM; with KB [2], 14.9 µM; in the test on DU-145 it was 12.6 µM.

For the molecule `CCN1C[C@]2(C)CC[C@H](OC)[C@@]34C1[C@@]1(OCO[C@@]15C[C@H](OC)[C@H]1C[C@@H]3[C@@H]5[C@H]1OC)[C@@H](OC(=O)c1ccc(OC(F)(F)F)cc1)[C@H]24` (single isomer, unassigned), the EC50 was determined as 18.7 µM in the test with A549, 18.9 µM in the test on KB [1], 20.1 µM in the test with KB [2] and 20.3 µM in the test on DU-145.

As for `CCN1C[C@]2(C)CC[C@H](OC)[C@@]34C1[C@@]1(OCO[C@@]15C[C@H](OC)[C@H]1C[C@@H]3[C@@H]5[C@H]1OC)[C@@H](OC(=O)c1cc([N+](=O)[O-])cc([N+](=O)[O-])c1)[C@H]24` (single isomer, unassigned), the EC50 is above 20 µM in the test with A549, 20.3 µM with KB [1], 19.1 µM in the test on KB [2] and above 20 µM in the test with DU-145.

Take `CCOc1ccc(C(=O)O[C@H]2[C@@H]3[C@@]4(C)CC[C@H](OC)[C@]35C(N(CC)C4)[C@@]23OCO[C@@]32C[C@H](OC)[C@H]3C[C@@H]5[C@@H]2[C@H]3OC)cc1` (single isomer, unassigned): the “Ratio EC50” value with KB [3] amounted to 2.28. In addition, the EC50 with A549 stood at 20 µM; with KB [1], 6.5 µM; in the test with KB [2], 14.8 µM; with DU-145 it was 15.6 µM.

With `CCN1C[C@]2(C)CC[C@H](OC)[C@@]34C1[C@@]1(OCO[C@@]15C[C@H](OC)[C@H]1C[C@@H]3[C@@H]5[C@H]1O)[C@@H](O)[C@H]24` [DELPHELINE], the EC50 in the test on A549, in the test with KB [1], with KB [2] and in the test on DU-145 was above 20 µM throughout.

Regarding `CCN1C[C@]2(C)CC[C@H](OC)[C@@]34C1[C@@]1(OCO[C@@]15C[C@H](OC)[C@H]1C[C@@H]3[C@@H]5[C@H]1OC)[C@@H](OC(=O)c1cc(F)c(F)c(F)c1)[C@H]24` (single isomer, unassigned), the “Ratio EC50” value with KB [3] is on record as 2.15. Further, the EC50 amounted to 19.9 µM in the test on A549, 6.8 µM in the test with KB [1], 14.6 µM in the test with KB [2] and 16.9 µM in the test with DU-145.

Consider `CCN1C[C@]2(C)CC[C@H](OC)[C@@]34[C@@H]5C[C@H]6[C@H](O)[C@@H]5[C@@]5(C[C@@H]6OC)OCO[C@@]5(C(=O)[C@H]23)[C@@H]14` [YUNNADELPHININE], for which the EC50 with A549, in the test with KB [1], with KB [2] and with DU-145 was above 20 µM throughout.

Consider `CCN1C[C@]2(C)CC[C@H](OC)[C@@]34C1[C@@]1(OCO[C@@]15C[C@H](OC)[C@H]1C[C@@H]3[C@@H]5[C@H]1OC)[C@@H](OC(=O)c1ccc(C(=O)OC)cc1)[C@H]24` (single isomer, unassigned), for which the EC50 in the test on A549, in the test with KB [1], in the test with KB [2] and in the test on DU-145 was above 20 µM in each case.

On to `CCN1C[C@]2(C)CC[C@H](OC)[C@@]34[C@@H]5C[C@H]6[C@H](OC)[C@@H]5[C@](O)(C[C@@H]6OC)[C@](O)([C@@H](OC(=O)c5cccc(C(F)(F)F)c5)[C@H]23)[C@@H]14`, for which the EC50 with A549, with KB [1], in the test on KB [2] and with DU-145 was above 20 µM throughout.

On to `CCN1C[C@]2(C)CC[C@H](OC)[C@@]34C1[C@@]1(OCO[C@@]15C[C@H](OC)[C@H]1C[C@@H]3[C@@H]5[C@H]1OC)[C@@H](OC(=O)c1ccc(F)cc1)[C@H]24` (single isomer, unassigned), for which the EC50 with A549 is above 20 µM; with KB [1], 15 µM; in the test with KB [2] it was above 20 µM; in the test with DU-145, 15.6 µM.

As to `CCN1C[C@]2(C)CC[C@H](OC)[C@@]34C1[C@@]1(OCO[C@@]15C[C@H](OC)[C@H]1C[C@@H]3[C@@H]5[C@H]1OC)[C@@H](OC(=O)c1ccc([N+](=O)[O-])cc1)[C@H]24` (single isomer, unassigned), the EC50 in the test on A549 was above 20 µM; in the test on KB [1], 17.7 µM; with KB [2], above 20 µM; in the test on DU-145, 17.2 µM.

In the case of `CCN1C[C@]2(C)CC[C@H](OC)[C@@]34[C@@H]5C[C@H]6[C@H](OC)[C@@H]5[C@@]5(C[C@@H]6OC)OCO[C@@]5([C@@H](OC(=O)/C=C/c5ccc(F)cc5)[C@H]23)[C@@H]14`, the EC50 with A549, in the test with KB [1], with KB [2] and in the test with DU-145 was above 20 µM each time.

`CC(=O)O[C@H]1C(=O)[C@@]2(C)[C@H]([C@H](OC(=O)c3ccccc3)[C@]3(O)C[C@H](OC(=O)[C@H](O)[C@@H](NC(=O)c4ccccc4)c4ccccc4)C(C)=C1C3(C)C)[C@]1(OC(C)=O)CO[C@@H]1C[C@@H]2O` [PACLITAXEL]: the 50% effective concentration (EC50) is 0.0064 µM in the test with A549, 0.76 µM in the test with KB [1], 0.006 µM in the test on KB [2] and 0.0059 µM with DU-145.

As for `CCN1C(=O)[C@]2(C)CC[C@H](OC)[C@@]34[C@@H]5C[C@H]6[C@H](OC)[C@@H]5[C@@]5(C[C@@H]6OC)OCO[C@@]5([C@@H](O)[C@@H]32)[C@@H]14`, the EC50 with A549, with KB [1], in the test with KB [2] and in the test with DU-145 was above 20 µM each time.

Regarding `CCN1C[C@]2(C)CC[C@H](OC)[C@@]34[C@@H]5C[C@H]6[C@H](OC)[C@@H]5[C@@]5(C[C@@H]6OC)OCO[C@@]5([C@@H](OC(=O)c5ccc(F)c(C)c5)[C@H]23)[C@@H]14`, the “Ratio EC50” value in the test with KB [3] came out at 2.57. The concentration for a half-maximal effect (EC50) was above 20 µM in the test on A549, 4.71 µM in the test with KB [1], 12.1 µM in the test on KB [2] and 19.8 µM in the test with DU-145.

As to `CCN1C[C@]2(C)CC[C@H](OC)[C@@]34[C@@H]5C[C@H]6[C@H](OC)[C@@H]5[C@](O)(C[C@@H]6OC)[C@](O)([C@@H](O)[C@H]23)[C@@H]14`, the EC50 in the test on A549, in the test with KB [1], with KB [2] and with DU-145 was above 20 µM each time.

Regarding `CCN1C[C@]2(C)CC[C@H](OC)[C@@]34[C@@H]5C[C@H]6[C@H](OC)[C@@H]5[C@@]5(C[C@@H]6OC)OCO[C@@]5([C@@H](OC(=O)c5ccc(OCc6ccccc6)cc5)[C@H]23)[C@@H]14`, in the test with KB [3], the “Ratio EC50” value is given as 1.6. Moreover, the 50% effective concentration (EC50) in the test with A549 turned out to be 14.1 µM; in the test with KB [1] it was 4.22 µM; in the test on KB [2] it was 6.76 µM; in the test on DU-145, 13.2 µM.

On to `CCN1C[C@]2(C)CC[C@H](OC)[C@@]34C1[C@@]1(OCO[C@@]15C[C@H](OC)[C@H]1C[C@@H]3[C@@H]5[C@H]1OC)[C@@H](OC(=O)c1ccc(SC(F)(F)F)cc1)[C@H]24` (single isomer, unassigned), for which the EC50 with A549 was above 20 µM; with KB [1], 17.9 µM; with KB [2] it was above 20 µM; in the test on DU-145, 16.6 µM.

`CCN1C[C@]2(C)CC[C@H](OC)[C@@]34[C@@H]5C[C@H]6[C@H](OC)[C@@H]5[C@@]5(C[C@@H]6OC)OCO[C@@]5([C@@H](OC(=O)c5ccc(C(F)(F)F)nc5)[C@H]23)[C@@H]14`: the EC50 in the test with A549 is above 20 µM; with KB [1], 18.7 µM; in the test with KB [2], above 20 µM; with DU-145 it was above 20 µM.

With `CCN1C[C@]2(C)CC[C@H](OC)[C@@]34C1[C@@]1(OCO[C@@]15C[C@H](OC)[C@H]1C[C@@H]3[C@@H]5[C@H]1OC)[C@@H](OC(=O)c1ccc(OC)cc1)[C@H]24` (single isomer, unassigned), the 50% effective concentration (EC50) in the test on A549, in the test on KB [1], in the test with KB [2] and in the test with DU-145 was above 20 µM throughout.
